Measured values: publication PMC10354055, “An optimized Nurr1 agonist provides disease-modifying effects in Parkinson’s disease models” (Nature Communications, 2023)
Several values for one entry are separate records, joined by “and”; a condition that tells them apart may be missing. Equal values may be shown once.

Legend:
HeLa cells [1] = experiment: Autophagolysosome (APL) formation assay, mRFP-GFP-LC3, HeLa cells; type: cell-based; conditions: CQ 20 µM, 4A7C-301 1 µM
Protocol: Nurr1 transactivity was normalized to β-galactosidase activity.
HeLa and N27-A cells were transfected with tandem mRFP-GFP-LC3 (Addgene) plasmid using Lipofectamine 2000 (Invitrogen) in 24-well plates. After 24 h, cells were incubated in starvation medium (Earle’s Balanced Salt Solution, EBSS; Lonza) containing bafilomycin A1 (BafA1, 10 nM), CQ (20 µM), or 4A7C-301 (1 µM) for 6 h and then fixed with 4% formaldehyde for fluorescence detection. Images were taken using a KEYENCE microscope and red (mRFP) LC3 dots and yellow (mRFP+GFP) LC3 dots were counted from three independent wells for each treatment group. 10 cells were randomly selected and counted from each well and a total of 30 cells were analyzed for each treatment group in both HeLa and N27-A cells.

HeLa cells [2] = experiment: Autophagic flux, Western blot LC3B and p62, HeLa cells; type: cell-based; conditions: HeLa, LC3B-II and p62
Protocol: Experiments were confirmed by duplicate measurements of the same sample. Quantification of immunoreactive bands was performed using ImageJ software (NIH, Bethesda, MD, USA) and expressed as a relative ratio against β-actin.
The band intensities were quantified using ImageJ and normalized against β-actin.

N27-A cells = experiment: Lysosomal pH detection, LysoSensor, N27-A cells; type: cell-based, rat
Protocol: Lysosomal pH was detected as previously described. Briefly, after incubation in EBSS containing BafA1 (10 nM), CQ (20 µM), or 4A7C-301 (1 µM) for 6 h, HeLa and N27-A cells were treated with LysoSensor™ Yellow/Blue DND-160 (5 µM; Life Technology) for 45 min, followed by 2 washes in HEPES buffer (Gibco). Fluorescence images at excitation/emission wavelengths of 360/460 nm and 470/525 nm were taken immediately using a 400 nm dichroic mirror (KEYENCE). The ratio of fluorescence intensities (F360/470) were measured and calculated manually using ImageJ for each cell. The average pH from measuring 5 cells from each of three wells for each treatment group in both HeLa and N27-A cells was calculated by fitting the F360/470 values to a plotted pH calibration curve with KCl/NaCl buffered from pH 3.5 to 7.0 using GraphPad Prism (Version 8.0.2).

CCN(CC)CCCC(C)Nc1ccnc2cc(Cl)ccc12 (centres unmarked) [CQ, chloroquine]
percentage of red dots among total LC3 dots (HeLa cells [1]; EBSS 6 h): 21.7%
APL formation / autophagy (in words) (HeLa cells [1]; EBSS, BafA1 10 nM): significantly inhibited
autophagic flux (in words) (HeLa cells [2]): failed to terminate
Lysosomal pH (N27-A cells; Figure 3d, individual replicates): 4.937 and 5.068 and 5.133 and 5.85 and 5.426 and 5.296 and 5.622 and 4.4486 and 5.263 and 4.481 and 5.947
lysosomal pH (in words) (N27-A cells; N27-A, BafA1 10 nM, CQ 20 µM, 4A7C-301 1 µM): significantly increased
